Laboratory results from PMC11082943, “Rpt5-Derived Analogs Stimulate Human Proteasome Activity in Cells and Degrade Proteins Forming Toxic Aggregates in Age-Related Diseases” (International Journal of Molecular Sciences, 2024).
No end group written: not given here.

Experiments:
[1] = tested on: T1, proteasome in HEK293T cells; experiment: 20S activity in cellulo (TAS3 assay); format: cell-based, human; settings: 10 µM TAS3 in KRBH buffer, 30 min preincubation with compound, 37 °C, linear regression of last 60 min, triplicate, Btz 10 µM
T1 construct: HEK293T cells were seeded in black 96-well plates; endogenous in cells; host or cells: HEK293T
Method: HEK293T cells were seeded in black 96-well plates at 7 × 10^3 cells/well and incubated in DMEM supplemented with 10% FBS and penicillin/streptomycin (100 units/mL/100 µg/mL) at 37 °C with 5% CO2. […] After this time, the cells were treated with the tested peptides/peptidomimetics (1–50 µM in medium). Each sample was prepared in triplicate. The plates were incubated for an additional 30 min. Subsequently, the medium was removed, and 100 µL of 10 µM TAS3 in Krebs-Ringer Bicarbonate (KRBH) buffer, containing the tested modulator, was added to the wells. The fluorescence intensity was monitored every 2 min over a 90 min period at 37 °C using a Tecan Infinite M200 Pro plate reader (Tecan Trading AG, Männedorf, Switzerland) with the excitation and emission wavelengths set at 485 nm and 535 nm, respectively. A linear regression analysis was performed for the last 60 min of the measurement. Any increase or decrease in activity of the 20S was compared to that of the control (cells incubated with TAS3 probe in KRBH buffer) and calculated based on the change in fluorescence units per time [40]. To determine statistical significance, ordinary one-way ANOVA was used.

HEK293T cells = format: in vitro ADME, human
Source text: One of the obstacles in the development of peptide drugs is their low cell permeability. To evaluate if the peptide-based proteasome activators can cross the cell membrane, we synthesized an analog of peptide 7; labeled the ε-amine group of the N-terminal lysine residue with a fluorescent dye, 5/6-carboxytetramethylrhodamine (TAMRA); and used confocal microscopy to detect its entry into cells. […] Therefore, 7 was combined with the HIV-1 TAT protein-derived, membrane-penetrating peptide sequence GRKKRRQRRR (TAT 48–57), separated by the 20S proteasome recognition sequence, LLVY.
TAMRA fluorescent tags were attached to the N-terminal […] group of the lysine residue of compound 7 and the ε-amino group of the corresponding lysine residue in compound TAT-7 before the final deprotection and cleavage of the compounds from the solid support. To achieve the selective attachment of the label to the proper ε-amino group, the Fmoc-Lys(Mtt)-OH was used in this position during peptide elongation. […]
Human embryonic kidney cells (HEK293T, a generous gift of Prof. Grzegorz Węgrzyn, Faculty of Biology, University of Gdańsk, Gdańsk, Poland) were maintained in Dulbecco’s Modified Eagle Medium (DMEM) supplemented with 10% Fetal Bovine Serum (FBS) and penicillin/streptomycin (100 units/mL/100 µg/mL), at 37 °C with 5% CO2. […] The images were merged, and the colocalization of the dye emission was analyzed.

Row | ΔRFU/min (change in fluorescence units per minute, TAS3 probe) [1] [RFU/min] | cell permeability / cellular internalization (result in words) (HEK293T cells) | Compound
1 | 3.7 | – | CC(C)C[C@H](NC(=O)[C@H](Cc1ccccc1)NC(=O)c1cnccn1)B(O)O [Btz, bortezomib]
2 | – | only slightly cell permeable | KKKANLQYYA [compound 7]
